Assay results: patent US10532066B2, “Surfactant lipids, compositions thereof, and uses thereof” (National Jewish Health, priority 2007, dated 2020)

Tests used:
[1] = tested on: Respiratory Syncytial Virus (RSV); experiment: RSV-induced cytokine production in BEAS2B cells; type: cell-based; conditions: RSV multiplicity 3, 48 h, lipid 200 ug/ml
[2] = tested on: MAPK, IkBα and MKP-1 in differentiated U937 cells; experiment: Western blot of LPS induced MAPK and IkBα phosphorylation and MKP-1 expression; type: cell-based, human; conditions: LPS 10 ng/ml, liposomes 200 μg/ml
Description: FIG. 4. POPG inhibits LPS induced MAPK and IkBα phosphorylation and MKP-1 expression. POPG liposomes (200 μg/ml) were added to monolayer cultures of differentiated U937 cells that received either no treatment or 10 ng/ml LPS. After incubating for the indicated time, cells were lysed using lysis buffer containing detergent, protease inhibitors and phosphatase inhibitors. Aliquots with 15 μg of protein from lysates were separated by SDS-PAGE and transferred onto nitrocellulose membranes. The amount of phosphorylation was detected using phospho-specific antibodies to p38MAPK, p42/p44 ERK, p46-p54 INK and phosphorylated IkBα. To determine equal loading of proteins between samples, the membranes were probed with rabbit polyclonal p46 INK, p42/p44 ERK, p38MAPK and IkBα antibodies. The expression of MKP-1 was detected with a polyclonal MKP-1 antibody.
FIG. 5. Quantification of POPG inhibition of LPS induced signaling. Western blot analysis as described in FIG. 4 was performed three or four times on separate samples and the intensity of phospho-p38, phospho-IkBα, phosphoERK, phospho JNK, phospho IkBα, total IkBα and MKP-1 was calculated using NIH Image J1.34 software.
FIG. 6. Molecular specificity in POPG action. Liposomes composed of POPC, DPPG or POPG were added to monolayer cultures of differentiated U937 cells that received either no treatment or 10 ng/ml LPS, as indicated. After 30 or 60 min cells were lysed and 15 μg of cellular protein from cultures was separated by SDS-PAGE and transferred onto nitrocellulose membranes. Phosphorylated and nonphosphorylated proteins were detected as described in FIG. 4.
FIG. 7. Comparative quantification of lipid dependent antagonism of LPS signaling. Western blot analysis was performed as described in FIG. 6 in three independent experiments. The intensity of the phosphorylated (p38, ERK, JNK and IkBα) and nonphosphorylated (total IkBα and MKP-1) proteins of interest was measured using NIH Image 0.1.34 software. Significance—*p<0.05, ** p<0.01.
Monolayers of unstimulated or stimulated macrophages were lysed on ice with 250 μl of ice-cold lysis buffer [50 mM Tris.HCl, pH 8.0, containing 137 mM NaCl, 10% (vol/vol) glycerol, 1% (vol/vol) Nonidet P-40, 1 mM NaF, 10 μg/ml leupeptin, 10 μg/ml aprotinin, 2 mM Na3VO4, and 1 mM phenylmethylsulfonyl fluoride (29). Insoluble nuclear material was pelleted by centrifugation at 14,000×g for 10 min at 4° C. and the supernatants were collected. 15 μg of protein from lysates was separated by SDS-PAGE and transferred onto nitrocellulose membranes (30). The blots were then washed in Tris-Tween-buffered saline [TTBS, 20 mM Tris-HCl buffer, pH 7.6, containing 137 mM NaCl and 0.05% (vol/vol) Tween 20], blocked with 5% (wt/vol) nonfat dry milk for 1 hour, and probed according to the method described by Towbin et. al. (30) with phospho-specific antibodies to p46-p54 JNK, p42/p44 ERK, and p38MAPK, or IkBα or with a polyclonal MKP-1 or IkBα antibodies in 5% (wt/vol) BSA dissolved in TTBS. With the use of horseradish peroxidase-conjugated secondary anti-rabbit or anti-mouse antibody, bound antibodies were detected by enhanced chemiluminescence (ECL plus, Amersham Biosciences, Piscataway, N.J.). To determine loading of proteins between samples, the membranes were probed with rabbit polyclonal p46 JNK, p42/p44 ERK, and p38MAPK antibodies.

[3] = tested on: Respiratory Syncytial Virus (RSV); experiment: RSV-induced cytokine production in NHBE cells; type: cell-based; conditions: RSV multiplicity 3, 48 h, lipid 200 ug/ml
[4] = tested on: Respiratory Syncytial Virus (RSV); experiment: Cytopathic effects of RSV upon BEAS2B cells (photomicrography); type: cell-based; conditions: multiplicity 3, 72 h, lipid 200 ug/ml
Description: (§1) Monolayers of BEAS2B cells were infected with RSV at a multiplicity of 3 for 72 h. Infections were performed on cells in either the absence or the presence of POPG (200 ug/ml). The cell monolayers were photographed at a magnification of 200×. Controls consisted of no viral challenge in either the presence or absence of POPG as indicated.
(§2) Monolayers of BEAS2B cells were infected with RSV at a multiplicity of 3 for 72 h. Infections were performed on cells in either the absence (b) or the presence (c,f) of POPG (200 ug/ml) and POPC (200 ug/ml) as indicated. Cells were photographed at a magnification of 200×. Controls (a,d,e) consisted of cell layers either not exposed to virus or exposed to POPG, and POPC in the absence of virus as indicated.
Monolayers of BEAS2B cells were infected with RSV at a multiplicity of 0.5-1, in either the presence or absence of 200 ug/ml POPG, or 200 ug/ml POPC, as indicated.
Monolayers of BEAS2B cells were either uninfected (CONL) or challenged with RSV at a multiplicity of 0.5/cell (RSV). Where indicated in the FIG. 44, RSV challenged cells were also treated with POPC (200 ug/ml) or POPG (200 ug/ml) liposomes; or POPG nanodiscs (nanoPOPG) at concentrations ranging from 100-300 ug/ml. Selected panels and fields are also shown at 400× magnification in FIG. 45.
Where indicated in FIG. 46, RSV challenged cells were also treated with nanodisc forms of dipalmitoyl-phosphatidylcholine (nanoDPPC), palmitoyl-oleoyl-phosphatidylcholine (nanoPOPC), or dioleoyl-phosphatidylcholine (nanoDOPC), dipalmitoyl-phosphatidylglycerol (nanoDPPG), dimyristoyl-phosphatidylglycerol (nanoDMPG), or dioleoyl-phosphatidylglycerol (nanoDOPG). At 72 h after infection, the cultures were examined by photomicrography at a magnification of 200×.

[5] = tested on: Respiratory Syncytial Virus (RSV); experiment: Cytopathic effects of RSV upon NHBE cells (photomicrography); type: cell-based; conditions: multiplicity 3, 72 h, lipid 200 ug/ml
Description: as §1, with “NHBE” for “BEAS2B”
as §2, with “NHBE” for “BEAS2B”
Monolayers of normal human bronchial epithelial cells were infected with RSV at a multiplicity of 0.5-1, in either the presence or absence of 200 ug/ml POPG, or 200 ug/ml POPC, as indicated.

RSV = RSV plaque progression in Hep2 monolayers, lipid in agar overlay; type: cell-based, Respiratory Syncytial Virus (RSV); conditions: lipid in agar overlay 5 hours after virus, POPG 200-500 ug/ml, POPC 500 ug/ml, 5 days
Description: Monolayers of Hep2 cells were subjected to RSV infection at levels that produce ca 100 plaques per well in quantitative plaque assays. The virus was incubated with the cells for 5 hours prior to agar overlay. The agar overlays contained either no additions, or POPG (200-500 ug/ml) or POPC (500 ug/ml).
The effects of POPG upon plaque formation as shown in Panel a of FIG. 39 were quantified in 3 independent experiments and are presented in this figure. The left panel of FIG. 40 provides the numbers of definite, and minute indefinite plaques formed in the absence and presence of POPG (200-500 ug/ml) as indicated. The right panel of FIG. 40 provides the numbers of definite plaques observed in the absence and presence of either POPG or POPC (200-500 ug/ml) as indicated.

CCCCCCCC/C=C\CCCCCCCC(=O)O[C@H](COC(=O)CCCCCCCCCCCCCCC)COP(=O)([O-])OCC[N+](C)(C)C [POPC, palmitoyl-oleoyl-phosphatidylcholine, reference compound]
IL-6 production [1]: not | LPS-induced MKP-1 expression [2]: neither POPC nor DPPG exerted a significant effect | LPS-induced phosphorylation of p38, ERK, JNK and IkBα ([2]; 15-60 min): neither POPC nor DPPG exerted a significant effect | IL-6 production [3]: not | cytopathic effects of RSV [4]: not | cytopathic effects of RSV [5]: not | progression of RSV infection (plaques) (RSV): bullseye plaques
